“And” between values parts separate entries of the source, which are not always exact repeats. Identical values can stand only once.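 Growth conditions: 96-well plates. Treatment: test compound, 48 hours, 5 concentrations. Analysis: linear interpolation between bracketing concentrations; unreached endpoints set to highest concentration. GI50: concentration for 50% inhibition of growth. TGI marks complete inhibition of growth.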
Tests used:
Test in all cases: NCI tumour cell line growth inhibition, 48 h
[1] = system: DU-145 prostate
[2] = system: SK-OV-3 ovarian
[3] = system: UACC-257 melanoma
[4] = system: A498 renal
[5] = system: BT-549 breast
[6] = system: PC-3 prostate
[7] = system: 786-0 renal
[8] = system: HL-60(TB) leukemia
[9] = system: UACC-62 melanoma
[10] = system: HS 578T breast

Row | SMILES | GI50 [1] | TGI [1] | GI50 [2] | TGI [2] | GI50 [3] | TGI [3] | GI50 [4] | TGI [4] | GI50 [5] | TGI [5] | GI50 [6] | TGI [6] | GI50 [7] | TGI [7] | GI50 [8] | TGI [8] | GI50 [9] | TGI [9] | GI50 [10] | TGI [10]
1 | NNc1c(C(N)=O)c2c(N)ncnc2n1C1OC(CO)C(O)C1O (stereo unspecified) | < 15.1 nM | 183 nM and 178 nM | < 13.7 nM and 27.3 nM | 413 nM and 361 nM | 40.4 nM and 132 nM | 254 nM and 1370 nM | 44.5 nM and 161 nM | 485 nM and 1260 nM | 35.5 nM and 40.7 nM | 624 nM and 672 nM | 22.4 nM and 46.4 nM | 220 nM and 304 nM | 35.4 nM and 107 nM | 405 nM and 1870 nM | 66.5 nM and < 11.8 nM | 785 nM and 125 nM | 26.9 nM and 40.9 nM | 124 nM and 168 nM | 56 nM and 107 nM | 826 nM and 2380 nM
2 | CC[C@H](C)[C@H](NC(=O)C12C3C4C1C1C2C3C41NC)C(=O)N(C)[C@H](C[C@@H](OC(C)=O)c1nc(C(=O)N[C@@H](Cc2ccccc2)C[C@H](C)C(=O)OC)cs1)C(C)C (stereo partly specified) | 446 nM | > 14300 nM | 698 nM | > 14300 nM | 655 nM | > 14300 nM | 296 nM | 4530 nM | 214 nM | 3510 nM | 645 nM | > 14300 nM | 760 nM | > 14300 nM | 56.8 nM | 346 nM | 118 nM | > 14300 nM | 693 nM | > 11900 nM
3 | COc1cccc(/C=C2\N=C(c3ccccc3)OC2=O)c1 | – | > 100000 nM | – | > 100000 nM | – | > 100000 nM | – | – | – | > 100000 nM | – | > 100000 nM | – | > 100000 nM | – | 26000 nM | – | > 100000 nM | – | > 100000 nM
4 | Nc1ccc(CC[C@H]2CCC/C=C/[C@@H]3C[C@H](O)C[C@H]3[C@H](O)/C=C/C(=O)O2)cc1 | 107 nM | > 100000 nM | 48.3 nM | > 100000 nM | 56.5 nM | 37100 nM | 16.9 nM | 49.1 nM | 38.1 nM | 16100 nM | 49.4 nM | > 100000 nM | 23.9 nM | 57 nM | 53.5 nM | 1550 nM | 48.8 nM | 14100 nM | < 16.3 nM | > 58900 nM
5 | Nc1ncn([C@H]2CC(O)[C@@H](CO)S2)c(=O)n1 (stereo partly specified) | 2270 nM | > 100000 nM | 28900 nM | > 100000 nM | – | – | 1990 nM | 58100 nM | 8270 nM | > 100000 nM | 8930 nM | > 100000 nM | 13900 nM | > 100000 nM | 5270 nM | > 100000 nM | 8510 nM | > 100000 nM | 39300 nM | > 100000 nM
6 | CCN(CC)CCOC(COc1cc(C)cc(C)c1)COc1cc(C)cc(C)c1 | 3400 nM | 13400 nM | 4860 nM | 17700 nM | 4890 nM | 17200 nM | – | – | 6120 nM | 20700 nM | 2600 nM | 10100 nM | 3200 nM | 14500 nM | 1940 nM | 4480 nM | 1740 nM | 4610 nM | 4220 nM | 16700 nM
7 | COc1cc(C(=O)c2cnc(-c3c[nH]c4cccc(C)c34)[nH]2)cc(OC)c1OC | 7.56 nM | > 100000 nM | 6.5 nM | 2500 nM | 332 nM | – | 1.76 nM | 7.74 nM | 20.4 nM | – | 5.37 nM | > 100000 nM | 6.81 nM | > 100000 nM | – | – | 4.4 nM | > 100000 nM | 6.55 nM | > 100000 nM

Reference: PubChem BioAssay (NCI)
